The structures appear in SMILES notation. pEC50: −log10 of the molar value. Read-outs that look alike come from different tables or passages of the source. A value given as a limit tells only on which side of the number the result lay.

Data set [1] relates to Renca cancer cells. In words: Renca tumor model, in vivo anti-tumor activity and weight change. As to conditions: Renca tumor-bearing mice. On the procedure:
In some experiments, Renca tumor cells were engineered to express the indicated murine or human target antigen.
When tumor volumes reached 100 mm^3, the mice were dosed with either compounds or ADCs by intraperitoneal or intravenous injection at the indicated dosing schedule and tumor volumes were monitored twice weekly. Compounds were formulated in 40% PEG400 in saline.
A syngeneic system was used to assess the ability of the STING agonist ADCs to induce immune responses in vivo and drive an anti-tumor immune response. The Renca system is a subcutaneous, mouse renal adenocarcinoma model. Female Balb/c mice were implanted with 2×10^6 Renca cells subcutaneously in the flank on day 0. When mean tumor size of 100 mm^3 (measured by using the formula Volume (mm^3)=0.5*Length*Width^2 where length is the longer dimension) was reached mice were randomized into treatment groups of ≥5 mice per group. Animals were then treated intraperitoneally (ADCs or compounds) or intravenously (compounds) with the indicated treatment every 7 days, for 3 doses total (or as indicated). Tumor length and width and the weight of the animals was measured throughout the study and tumor volume was calculated using the formula above. Animals were followed until the tumor volume reached ˜1000 mm^3; animals were then euthanized.

Data set [2] is described as follows: In vivo cytokine assay, plasma of Renca tumor-bearing mice. Also on record: species or system mouse. On the procedure: Cytokines were measured in mouse plasma harvested at 3, 6, 24, or 48 hours after treatment with compounds or ADCs using a Milliplex MAP mouse cytokine/chemokine magnetic bead panel assay kit (MCYTOMAG-70k custom 11-plex kit: MCP1, MIP1α, MIP1β, TNFα, IFNγ, IL-10, IL-12p70, IL-6, IL-1β, IP10, RANTES) and analyzed using a Luminex™ MAGPIX™ Instrument System. Values that were outside of the standard curve range (<3.2 or […]) were excluded from calculation of the mean values.

Data set [3] concerns THP1-Dual™ reporter cells. As to the kind of experiment: THP1-Dual cell reporter assay (IRF-Lucia luciferase reporter). The class given is cell-based, human. As to conditions: for pEC50: free compounds, 24 h, Lucia reporter signal, read-out: EC50; for EC50 (ng/mL) / EC50: ADCs: drug linker conjugated to a targeted mAb, 48 h. Summed up: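 THP1-Dual monocytic cells (~100,000/well) were exposed to compound for 24 h (ADCs 48 h). Secreted IRF-driven Lucia luciferase in the supernatant was quantified by QUANTI-Luc luminescence.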

Setting [4] is: Renca tumor-bearing mice, 3 h, 1.86 mg/kg.
[5] abbreviates: Renca tumor-bearing mice, 6 h, 1.86 mg/kg.
The mark [6] stands for this setting: Renca tumor-bearing mice, 24 h, 1.86 mg/kg.

With `CCn1nc(C)cc1C(=O)Nc1nc2cc(C(N)=O)cc(OC)c2n1C/C=C/Cn1c(NC(=O)c2cc(C)nn2CC)nc2cc(C(N)=O)cc(OCCCN3CCOCC3)c21.O=C(O)C(F)(F)F.O=C(O)C(F)(F)F.O=C(O)C(F)(F)F` [Compound A, (E)-1-(4-(5-carbamoyl-2-(1-ethyl-3-methyl-1H-pyrazole-5-carboxamido)-7-(3-morpholinopropoxy)-1H-benzo[d]imidazol-1-yl)but-2-en-1-yl)-2-(1-ethyl-3-methyl-1H-pyrazole-5-carboxamido)-7-methoxy-1H-benzo[d]imidazole-5-carboxamide tris(2,2,2-trifluoroacetate), reference compound], the “tolerability” value in data set [1] is “less well tolerated”. The “average weight loss after the 2nd dose” value in data set [1] (q7dx3) is reported as 6.2%. In data set [2] (setting [4]), the IL1β in plasma was 1.5 pg/mL, the IL12p70 in plasma amounted to 0.2 pg/mL, the IL-6 in plasma stood at 3550 pg/mL and the IL-10 in plasma came to 0.5 pg/mL. Moreover, in data set [2] (setting [4]), the IP10 in plasma is 4780 pg/mL and the MCP-1 in plasma worked out at 14500 pg/mL. In data set [2] (setting [5]), this molecule came in with an IFNγ in plasma of 71.8 pg/mL, an IL1β in plasma of 0.6 pg/mL, an IL12p70 in plasma of 0.2 pg/mL and an IL-6 in plasma of 732 pg/mL. In data set [2] (setting [5]), the IL-10 in plasma is < 3.2 pg/mL and the IP10 in plasma was determined as 4980 pg/mL. In data set [2] (setting [6]), the IFNγ in plasma is < 3.2 pg/mL, the IL1β in plasma was 0.3 pg/mL, the IL12p70 in plasma was < 3.2 pg/mL and the IL-6 in plasma is 16.4 pg/mL. In addition, in data set [2] (setting [6]), the IL-10 in plasma was < 3.2 pg/mL and the IP10 in plasma is 890 pg/mL. In addition, the “systemic pro-inflammatory cytokine (IL-6 and TNF) production” value in data set [2] (plasma of tumor-bearing mice) was “induced robust production of IL-6 and TNF”. Moreover, the pEC50 in data set [3] (Homo sapiens, THP1-Dual) is 8.52. The “potency relative to other free compound” value in data set [3] (free drug) is given as “significantly more potent”.
Turning to `CCn1nc(C)cc1C(=O)Nc1nc2cc(C(N)=O)cc(OC)c2n1C/C=C/Cn1c(NC(=O)c2cc(C(F)(F)F)nn2CC)nc2cc(C(N)=O)cc(OCCCN(C)C(=O)CCN3C(=O)C=CC3=O)c21` [Compound 109], in data set [3], the “EC50 (ng/mL)” value is >10,000 ng/mL.
With `CCn1nc(C)cc1C(=O)Nc1nc2cc(C(N)=O)cc(OC)c2n1C/C=C/Cn1c(NC(=O)c2cc(C)ns2)nc2cc(C(N)=O)cc(OCCCNC)c21` [Compound 83], in data set [3] (Homo sapiens, THP1-Dual), the pEC50 was < 5.00.
On the same count and under the same terms, the value for `CCn1nc(C)cc1C(=O)Nc1nc2cc(S(N)(=O)=O)ccc2n1C/C=C/Cn1c(NC(=O)c2cc(C)nn2C)nc2cc(C(N)=O)cc(OCCC3CNC3)c21` [Compound 136, (E)-7-(2-(azetidin-3-yl)ethoxy)-2-(1,3-dimethyl-1H-pyrazole-5-carboxamido)-1-(4-(2-(1-ethyl-3-methyl-1H-pyrazole-5-carboxamido)-5-sulfamoyl-1H-benzo[d]imidazol-1-yl)but-2-en-1-yl)-1H-benzo[d]imidazole-5-carboxamide] was < 5.30.
As for `CCn1nc(C)cc1C(=O)Nc1nc2cc(S(N)(=O)=O)ccc2n1C/C=C/Cn1c(NC(=O)c2cc(C)nn2C)nc2cc(C(N)=O)cc(OCCCOC3CN(C(=O)CCN4C(=O)C=CC4=O)C3)c21` [Compound 147, (E)-2-(1,3-dimethyl-1H-pyrazole-5-carboxamido)-7-(3-((1-(3-(2,5-dioxo-2,5-dihydro-1H-pyrrol-1-yl)propanoyl)azetidin-3-yl)oxy)propoxy)-1-(4-(2-(1-ethyl-3-methyl-1H-pyrazole-5-carboxamido)-5-sulfamoyl-1H-benzo[d]imidazol-1-yl)but-2-en-1-yl)-1H-benzo[d]imidazole-5-carboxamide], the “EC50 (ng/mL)” value in data set [3] is recorded as >10,000 ng/mL.
On to `COc1cc(C(N)=O)cc2nc(NC(=O)c3cc(C)sn3)n(C/C=C/Cn3c(NC(=O)c4cc(C)sn4)nc4cc(C(N)=O)cc(O)c43)c12` [Compound 40], for which the pEC50 in data set [3] (Homo sapiens, THP1-Dual) is < 5.00.
With `CCn1nc(C)cc1C(=O)Nc1nc2cc(C(N)=O)cc(OC)c2n1C/C=C/Cn1c(NC(=O)c2c(C)cnn2C)nc2cc(C(N)=O)cc(OCCCN(C)C(=O)CCN3C(=O)C=CC3=O)c21` [Compound 110], in data set [3], the “EC50 (ng/mL)” value is reported as >10,000 ng/mL.
Turning to `CCn1nc(C(=O)Nc2nc3cc(C(N)=O)cc(O)c3n2C/C=C/Cn2c(NC(=O)c3cc(C)n(CC)n3)nc3cc(C(N)=O)cc(OC)c32)cc1C` [Compound 32], the pEC50 in data set [3] (Homo sapiens, THP1-Dual) was 7.35.
Same read-out and setting: the value for `CCn1nc(C)cc1C(=O)Nc1nc2cc(S(N)(=O)=O)ccc2n1C/C=C/Cn1c(NC(=O)c2cc(C)nn2CC)nc2cc(C(N)=O)cc(OCCC3CNC3)c21` [Compound 135, (E)-7-(2-(azetidin-3-yl)ethoxy)-2-(1-ethyl-3-methyl-1H-pyrazole-5-carboxamido)-1-(4-(2-(1-ethyl-3-methyl-1H-pyrazole-5-carboxamido)-5-sulfamoyl-1H-benzo[d]imidazol-1-yl)but-2-en-1-yl)-1H-benzo[d]imidazole-5-carboxamide] was 5.70.
As for `CCn1nc(C)cc1C(=O)Nc1nc2cc(C(N)=O)cc(OC)c2n1C/C=C/Cn1c(NC(=O)c2cc(C)nn2CC)nc2cc(C(N)=O)cc(OCCCOC3CN(C(=O)OC(C)(C)C)C3)c21` [Compound 27e], in data set [3], the pEC50 was 8.89.
`CCn1nc(C)cc1C(=O)Nc1nc2cc(C(=O)O)cc(O)c2n1C/C=C/Cn1c(NC(=O)c2cc(C)nn2CC)nc2cc(C(=O)O)cc(OC)c21` [Compound 63, (E)-1-(4-(5-carboxy-2-(1-ethyl-3-methyl-1H-pyrazole-5-carboxamido)-7-hydroxy-1H-benzo[d]imidazol-1-yl)but-2-en-1-yl)-2-(1-ethyl-3-methyl-1H-pyrazole-5-carboxamido)-7-methoxy-1H-benzo[d]imidazole-5-carboxylic acid]: the pEC50 in data set [3] (Homo sapiens, THP1-Dual) is 5.60.
For the molecule `CCn1nc(C)cc1C(=O)Nc1nc2cc(C(N)=O)cc(OC)c2n1C/C=C/Cn1c(NC(=O)c2cc(C)nn2CC)nc2cc(C(N)=O)cc(OCCCN(C)C(=O)[C@H](CO)NC(=O)CCN3C(=O)C=CC3=O)c21` [Compound 24, (S,E)-1-(4-(5-carbamoyl-2-(1-ethyl-3-methyl-1H-pyrazole-5-carboxamido)-7-methoxy-1H-benzo[d]imidazol-1-yl)but-2-en-1-yl)-7-(3-(2-(3-(2,5-dioxo-2,5-dihydro-1H-pyrrol-1-yl)propanamido)-3-hydroxy-N-methylpropanamido)propoxy)-2-(1-ethyl-3-methyl-1H-pyrazole-5-carboxamido)-1H-benzo[d]imidazole-5-carboxamide], in data set [3], the “EC50” value was determined as 2.1 ng/mL. Besides, in data set [3] (Homo sapiens, THP1-Dual), the pEC50 was 7.08.
For `CCn1nc(C)cc1C(=O)Nc1nc2cc(C(N)=O)cc(OC)c2n1C/C=C/Cn1c(NC(=O)c2cc(C)nn2CC)nc2cc(C(N)=O)cc(OCCCN(C)C(=O)[C@H](CC(=O)O)NC(=O)CCN3C(=O)C=CC3=O)c21` [Compound 17, (S,E)-4-((3-((5-carbamoyl-1-(4-(5-carbamoyl-2-(1-ethyl-3-methyl-1H-pyrazole-5-carboxamido)-7-methoxy-1H-benzo[d]imidazol-1-yl)but-2-en-1-yl)-2-(1-ethyl-3-methyl1H-pyrazole-5-carboxamido)-1H-benzo[d]imidazol-7-yl)oxy)propyl)(methyl)amino)-3-(3-(2,5-dioxo-2,5-dihydro-1H-pyrrol-1-yl)propanamido)-4-oxobutanoic acid], in that order: 2.2 ng/mL and 7.18.

The values are drawn from patent US20240123079A1 (Seagen Inc., priority 2021, published 2024).
